This note sets out measurements from the Deep4Chem optical property database.

A short description of this data set: solvent given as SMILES.

Take `CN(C)c1ccc2c(-c3cc(C(=O)[O-])ccc3C(=O)[O-])c3ccc(=[N+](C)C)cc-3oc2c1`: the emission maximum is, setting by setting: (in CCO) 564 nm; (in O) 575 nm.

As for `CCCCCCCCCCCCOc1cc2c3c(ccc4c5c(OCCCCCCCCCCCC)cc6c7c(ccc(c1c34)c75)C(=O)N(C1CCCCC1)C6=O)C(=O)N(C1CCCCC1)C2=O`, under “in ClC(Cl)Cl”, the emission maximum is recorded as 597 nm.

As for `O=C1C(=c2c(=O)c3c4ccccc4cc4cc5ccccc5c2c43)C(=O)c2ccccc21`, the emission maximum is, setting by setting: (in C1CCOC1) 583 nm; (in CC#N) 604 nm; (in CCCCCC) 556 nm; (in Cc1ccccc1) 578 nm; (in ClCCl) 599 nm.

In the case of `CC[C@H](C)COc1ccc(C2=C3C(C)=C(c4ccc5ccc6cccc7ccc4c5c67)C(C)=[N+]3[B-](F)(F)n3c(C)c(-c4ccc5ccc6cccc7ccc4c5c67)c(C)c32)cc1`, the emission maximum (in ClCCl) is recorded as 585 nm.

The compound `Cc1cccc2nc(-c3ccc(-c4cc(=O)cc(-c5ccccc5)o4)cc3)c(NC3CCCCC3)n12` came in with an emission maximum (in ClCCl) of 506 nm.

Take `Cc1ccc2oc(-c3cc4cc(C)ccc4oc3=O)cc2c1`: the emission maximum (in CC#N) turned out to be 445 nm; the emission maximum (in CCOC(C)=O) came to 436 nm; the emission maximum (in CS(C)=O) came out at 448 nm; the emission maximum (in Cc1ccccc1) is given as 436 nm; the emission maximum (in O) was 498 nm.

On to `CCN(CC)c1ccc2cc(C#N)/c(=N\C(=O)c3ccccc3)oc2c1`, for which the emission maximum reads like this: (in CCO) 472 nm; (in ClCCl) 460 nm.

Turning to `Cc1cc(=O)oc2c3c4c(cc12)CCCN4CCC3`, the emission maximum (in C1CCCCC1) is on record as 407 nm, the emission maximum (in CC#N) is on record as 450 nm, the emission maximum (in CCO) amounted to 473 nm and the emission maximum (in O) came to 489 nm.

Turning to `CCN(CC)c1cc2oc3cc(O)c(F)cc3c(=O)c2cc1F`, for the setting “in CCO”, the emission maximum stood at 438 nm.

On to `CCCCCCCC(=O)Oc1ccc2c3cccc4c(OC(=O)CCCCCCC)ccc(c5cccc1c52)c43`, for which the emission maximum is, setting by setting: (in C1CCOC1) 454.01 nm; (in Cc1ccccc1) 456.99 nm; (in ClC(Cl)(Cl)Cl) 456.99 nm; (in ClC(Cl)Cl) 456.01 nm; (in ClCCl) 455 nm; (in c1ccncc1) 459.02 nm.

On to `O=Cc1ccc2c(c1)c1ccccc1n2-c1ccc(-c2ccc(-n3c4ccccc4c4cc(C=O)ccc43)cc2)cc1`, for which, under “in ClCCl”, the emission maximum came out at 405 nm.

Turning to `Nc1ccc(/C=C/c2cccnc2)cc1`, the emission maximum is, setting by setting: (in CC#N) 446 nm; (in CCCCCC) 390 nm.

In the case of `CN(C)c1ccc(-c2ccc3n2[B-](F)(F)[N+]2=C(c4ccccc4)C=CC2=C3C(F)(F)F)cc1`, the emission maximum (in C1COCCO1) is 756 nm; the emission maximum (in CC#N) is on record as 772 nm; the emission maximum (in CCCCCC) stood at 696 nm; the emission maximum (in CCCCO) is given as 745 nm; the emission maximum (in CCCCOCCCC) came out at 728 nm; the emission maximum (in CCO) is recorded as 750 nm. Further, the emission maximum came to 755 nm (in CCOC(C)=O), 800 nm (in CS(C)=O), 746 nm (in Cc1ccccc1) and 712 nm (in ClC(Cl)(Cl)Cl).

For the compound `CCn1ncc2c3c(C#N)c4c5ccccc5n(CC)c4nc3ccc21`, the emission maximum (in CCOC(C)=O) is 476 nm.

Regarding `CC1=CC(C)=[N+]2C1=C(c1ccc3cccnc3n1)c1c(C)cc(C)n1[B-]2(F)F`, the emission maximum came out at 516 nm (in CC#N); 524 nm (in CCCCCC); 521 nm (in CO); 527 nm (in ClC(Cl)Cl); 522 nm (in ClCCl).

With `O=Cc1ccc(Oc2ccc3c4c(cccc24)C(=O)N(CCO)C3=O)cc1`, the emission maximum (in ClC(Cl)Cl) is recorded as 414 nm.

Under “in ClCCl”, `CCN(CC)c1ccc2c(-c3ccccc3C(=O)O)c3c([o+]c2c1)/C(=C/c1ccc2c(c1)c1ccccc1n2CC)CCC3` returned an emission maximum of 712 nm.

Turning to `c1ccc(-c2nc(-c3ccccn3)[se]c2N(c2ccccc2)c2ccccc2)cc1`, where the note is “in ClC(Cl)Cl”, the emission maximum is 498 nm.

`O=Cc1cc2c(cc3ccc4cccc5ccc2c3c45)[nH]1` yielded an emission maximum (in CCOC(C)=O) of 438 nm.

`Cc1cc(-c2ccc3ccccc3c2)cc(C)[o+]1` returned an emission maximum (in ClCCl) of 544 nm.

For the compound `CC(C)(C)c1ccc2c(c1)c1cc(C(C)(C)C)ccc1n2-c1ccc2oc3nc4oc5cc(C(F)(F)F)ccc5c4cc3c2c1`, the emission maximum (in ClC(Cl)Cl) amounted to 466 nm.

`CN1C(=CC2=C([O-])C(=CC3=[N+](C)c4ccccc4C3(C)C)C2=C2C(=O)NC(=O)NC2=O)C(C)(C)c2ccccc21` registered an emission maximum (in ClC(Cl)Cl) of 665 nm.

`CCC1=C(C)C(=O)n2c1cc1c(C)c(CC(=O)O)c(C)n1c2=O` registered an emission maximum (in CO) of 535 nm, an emission maximum (in CS(C)=O) of 505 nm, an emission maximum (in ClC(Cl)Cl) of 485 nm and an emission maximum (in c1ccccc1) of 465 nm.

Where the note is “in Cc1ccccc1”, `CC(C)[Si](C#Cc1ccc(-c2c3cccc4c5cccc6c(-c7ccc(C#C[Si](C(C)C)(C(C)C)C(C)C)cc7)c7cccc8c9cccc2c9c(c34)c(c65)c78)cc1)(C(C)C)C(C)C` came in with an emission maximum of 744 nm.

As for `Cc1ccc(N(c2ccc(C)cc2)c2ccc(-c3ccc(C=C(C#N)C#N)cc3)cc2)cc1`, the emission maximum (in ClC(Cl)Cl) was determined as 676 nm.

With `CC(=O)c1ccc(-c2nc3ccc(N(C)C)cc3s2)cc1`, the emission maximum reads like this: (in C1CCCCC1) 435 nm; (in CC#N) 588 nm; (in CC(C)O) 611.34 nm; (in CO) 676 nm; (in CS(C)=O) 587.85 nm; (in ClC(Cl)Cl) 524 nm. The compound further yielded an emission maximum (in c1ccccc1) of 487.85 nm.

Regarding `CN(C)c1ccc2nc(-c3ccc(C(=O)OC[C@H](NC(=O)OC(C)(C)C)C(=O)OCc4ccccc4)cc3)sc2c1`, the emission maximum is 456 nm (in C1CCCCC1); 568 nm (in CC#N); 558 nm (in CC(C)O); 577 nm (in CO); 583 nm (in CS(C)=O); 504 nm (in ClC(Cl)Cl). For the setting “in c1ccccc1”, this compound returned an emission maximum of 484 nm.

As for `COC(=O)/C=C/c1sc(-c2ccc(N(C)C)cc2)cc1N`, the emission maximum (in CC#N) is listed as 609 nm.

Turning to `CC(C)(C)c1ccc2c(c1)[nH]c1c3[nH]c4cc(C(C)(C)C)ccc4c3c3nsnc3c21`, the emission maximum by setting is: (in CN(C)C=O) 507 nm; (in Cc1ccccc1) 472 nm; (in ClCCl) 502 nm.

In the case of `F[B-]1(F)n2c(-c3ccccc3)cc(-c3ccccn3)c2N=C2C(c3ccccn3)=CC(c3ccccc3)=[N+]21`, the emission maximum (in CC#N) worked out at 682 nm.

Consider `CC(C)(C)c1cc(C(C)(C)C)c2oc3c(c2c1)C=CN1C(=O)C2=C4c5oc6c(C(C)(C)C)cc(C(C)(C)C)cc6c5C=CN4C(=O)C2=C31`, for which the emission maximum by setting is: (in CN(C)C=O) 658 nm; (in ClC(Cl)Cl) 651 nm.

Turning to `CCCCCCN(CCCCCC)c1ccc(C#Cc2c(F)c(F)c(F)c(F)c2F)cc1`, the emission maximum by setting is: (in CO) 464 nm; (in ClCCl) 502 nm.

Turning to `C[C@]12SC(=O)C=C1c1nc(-c3ccc(Cl)cc3Cl)[nH]c1C1=CC(=O)S[C@@]12C`, under “in CC#N”, the emission maximum stood at 500 nm.

In the case of `CCCCCCCCCCN1C(=O)c2cc(NCCCOCCO)c3c4c(cc(NCCCOCCO)c(c24)C1=O)C(=O)N(CCCCCCCCCC)C3=O`, the emission maximum worked out at 642 nm (in CO) and 640 nm (in ClC(Cl)Cl).

On to `CN(C)c1ccc(/C=C/C=C/c2nc3ccccc3s2)cc1`, for which the emission maximum reads like this: (in C1COCCO1) 516 nm; (in CC#N) 562 nm; (in CC(C)=O) 557 nm; (in CCCCCC) 478 nm; (in CCCCO) 531 nm; (in CCCO) 533 nm. The emission maximum is, setting by setting: (in CCO) 560 nm; (in CN(C)C=O) 567 nm; (in CO) 573 nm; (in Cc1ccccc1) 500 nm; (in ClC(Cl)(Cl)Cl) 499 nm; (in ClC(Cl)Cl) 526 nm. For the same compound, the emission maximum by setting is: (in ClCCl) 533 nm; (in OCC(O)CO) 583 nm; (in OCCO) 583 nm; (in c1ccccc1) 504 nm.

For `CCC1=C(C)C2=C(C)c3cc(I)cn3[B-](F)(F)[N+]2=C1C`, the emission maximum was 532 nm (in C1CCCCC1); 532.5 nm (in CC(C)=O); 534 nm (in CCO); 531.5 nm (in CCOC(C)=O); 533.5 nm (in CO); 530.5 nm (in OCC(F)(F)F).

Turning to `CCN(CC)c1ccc(OC)c(C=O)c1`, the emission maximum (in CC#N) is reported as 548 nm; the emission maximum (in CC(C)O) is 600 nm; the emission maximum (in CCCCCC) is reported as 470 nm; the emission maximum (in CCOC(C)=O) was 518 nm; the emission maximum (in CO) turned out to be 645 nm; the emission maximum (in CS(C)=O) worked out at 558 nm. For the same compound, the emission maximum came out at 509 nm (in Cc1ccccc1) and 538 nm (in ClCCl).

As to `COc1ccc(-c2cn3cc(C)c[n+]3[n-]2)cc1`, the emission maximum (in ClCCl) is recorded as 421 nm.

Turning to `CC(C)n1c(=O)c2cc3ccc4cccc5ccc(c2c1=O)c3c45`, the emission maximum (in ClC(Cl)Cl) worked out at 457 nm.

In turn, `Cc1ccc2c(c1)C1(c3ccccc3-c3ccccc31)c1cc(C)ccc1N2c1ccc2c(c1)Sc1ccccc1P2(=S)c1ccccc1` (stereo not given) gave an emission maximum (in Cc1ccccc1) of 454.61 nm.

Compound `CCN(CC)c1ccc2c(c1)oc(=O)c1c(C)nc3c(c(-c4ccccc4)nn3C)c12` registered an emission maximum (in ClCCl) of 461 nm.

As to `BrC1=CN2C[n+]3cc(Br)c4ccccc4c3N=C2c2ccccc21`, under “in CO”, the emission maximum stood at 502 nm.

`[NH-]c1cc(N)cc(-c2nc3ccccc3s2)c1` came in with an emission maximum (in O) of 484 nm.

Regarding `CCc1cccc(CC)c1-c1c2ccccc2c(-c2c(CC)cccc2CC)c2cc3ccccc3cc12`, under “in ClCCl”, the emission maximum was 501 nm.

For `Cc1ccccc1-c1c2ccc(=[N+]3CCOCC3)cc-2oc2cc(N3CCCCC3)ccc12`, the emission maximum (in CCO) amounted to 582 nm and the emission maximum (in ClCCl) worked out at 579 nm.
